Laboratory results reported in patent US20260356819A1, “OXOISOINDOLINYL-SUBSTITUTED […] DERIVATIVE AND USE THEREOF” (GLUETACS THERAPEUTICS (SHANGHAI) CO., LTD., priority 2023, published 2026).

Assays:
MV-4-11 cells = test: Inhibition of proliferation of myeloid monocytic leukemia cells MV-4-11 (cell viability assay, 96 h); type: cell-based, human; conditions: read-out: inhibitory activity (IC50) against tumor cells proliferation, MV-4-11
Description: (§1) The tumor cells used herein were cultured in a cell culture medium listed in table 2 at 37 °C in an incubator with 5% CO2. Prior to experimentation, all cell lines used were correctly identified by STR profiling, and tested negative for Mycoplasma contamination using a Mycoplasma detection kit through routine screenings.
(§2) The IC50 values of the compounds of the present disclosure (including the compounds in Table 1, and Examples 1-498) were determined using the CellTiter-Meiluncell Luminescent Cell Viability Assay Kit from Dalian Meilun Biotech Co., Ltd. The detailed procedure is as follows: Tumor cells were seeded in 96-well cell culture plates at the densities specified in Table 3. On the following day, the test compounds of the present disclosure were subjected to serial dilution. […] Subsequently, 0.5 μL of the test compound dilution was transferred into the 96-well plate containing the cells, with each well containing 100 μL of cell culture medium. […] Into the 96-well plate, the diluted test compounds and corresponding detection reagents were added, resulting in final test compound concentrations of 500 nM and 10 nM, respectively. The experimental procedure is described below using the diluted 2 μM test compound as an example.
(§3) 0.5 μL of the aforementioned diluted compound of the present disclosure (including the compounds in Table 1, and Examples 1-498) was added to the seeded cells in 100 μL of medium, yielding a final test compound concentration of 10 nM. After the cells were treated with the compounds of the present disclosure for a specified period, the cell viability assay reagent was added to the culture medium according to the kit's instructions to determine cell viability. […] All controls were treated using the same procedure as the compounds of the present disclosure. The growth inhibition curves for the compounds of the present disclosure were plotted using Prism GraphPad software, and the IC50 values were calculated therefrom.

WEE1 = biological target: T1, WEE1 (Homo sapiens, UniProt P30291+Q96SW2); test: Western blot degradation of WEE1 in hPBMCs (24 h); type: cell-based; conditions: compounds at 50 nM and 500 nM
T1 construct: The supernatant was aspirated as the extracted total cell protein; endogenous in cells; host or cells: human peripheral blood mononuclear cells (hPBMCs)
In short: (§4)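 Compounds were tested at 50 nM and 500 nM on hPBMCs (1×10^6 cells/mL) for 24 h, alongside DMSO. Proteins were detected by Western blot after denaturation at 95 °C; remaining protein computed from normalised band grayscale.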

IKZF1 = biological target: T2, IKZF1 (Homo sapiens, UniProt Q13422+Q96SW2); test: Western blot degradation of IKZF1 in hPBMCs (24 h); type: cell-based; conditions: compounds at 50 nM and 500 nM
T2 construct: The supernatant was aspirated as the extracted total cell protein; endogenous in cells; host or cells: human peripheral blood mononuclear cells (hPBMCs)
In short: as §4

IKZF2 = biological target: T3, IKZF2 (Homo sapiens, UniProt Q96SW2+Q9UKS7); test: Western blot degradation of IKZF2 in hPBMCs (24 h); type: cell-based; conditions: compounds at 50 nM and 500 nM
T3 construct: The supernatant was aspirated as the extracted total cell protein; endogenous in cells; host or cells: human peripheral blood mononuclear cells (hPBMCs)
In short: as §4

IKZF3 = biological target: T4, IKZF3 (Homo sapiens, UniProt Q96SW2+Q9UKT9); test: Western blot degradation of IKZF3 in hPBMCs (24 h); type: cell-based; conditions: compounds at 50 nM and 500 nM
T4 construct: The supernatant was aspirated as the extracted total cell protein; endogenous in cells; host or cells: human peripheral blood mononuclear cells (hPBMCs)
In short: as §4

CK1α = biological target: T5, CK1α (Homo sapiens, UniProt P48729+Q96SW2); test: Western blot degradation of CK1α in hPBMCs (24 h); type: cell-based; conditions: compounds at 50 nM and 500 nM
T5 construct: The supernatant was aspirated as the extracted total cell protein; endogenous in cells; host or cells: human peripheral blood mononuclear cells (hPBMCs)
In short: as §4

GSPT1 = biological target: T6, GSPT1 (Homo sapiens, UniProt P15170+Q96SW2); test: Western blot degradation of GSPT1 in hPBMCs (24 h); type: cell-based; conditions: compounds at 50 nM and 500 nM
T6 construct: The supernatant was aspirated as the extracted total cell protein; endogenous in cells; host or cells: human peripheral blood mononuclear cells (hPBMCs)
In short: as §4

MM.1S cells = test: Inhibition of proliferation of multiple myeloma cells MM.1S (cell viability assay, 96 h); type: cell-based, human; conditions: read-out: inhibitory activity (IC50) against tumor cells proliferation, MM.1S
Jurkat cells = test: Inhibition of proliferation of T lymphocytic leukemia cells Jurkat (cell viability assay, 96 h); type: cell-based, human; conditions: read-out: inhibitory activity (IC50) against tumor cells proliferation, Jurkat
Description: as §1, §2, §3

T6 sequence (P15170 whole entry): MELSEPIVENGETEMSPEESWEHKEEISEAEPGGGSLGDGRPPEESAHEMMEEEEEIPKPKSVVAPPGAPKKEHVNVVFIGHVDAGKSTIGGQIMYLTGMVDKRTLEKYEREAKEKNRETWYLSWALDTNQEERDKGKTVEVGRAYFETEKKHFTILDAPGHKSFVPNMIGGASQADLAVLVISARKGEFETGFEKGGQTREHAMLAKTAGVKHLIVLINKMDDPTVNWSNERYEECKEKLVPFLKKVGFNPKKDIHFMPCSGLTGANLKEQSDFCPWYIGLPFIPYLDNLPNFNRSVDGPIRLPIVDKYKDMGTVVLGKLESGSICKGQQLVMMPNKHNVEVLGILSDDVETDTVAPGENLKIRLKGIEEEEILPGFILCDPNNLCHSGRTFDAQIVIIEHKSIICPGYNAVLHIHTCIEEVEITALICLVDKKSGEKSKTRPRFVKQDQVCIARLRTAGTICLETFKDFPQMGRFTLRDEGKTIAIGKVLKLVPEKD
T6 sequence (Q96SW2 whole entry): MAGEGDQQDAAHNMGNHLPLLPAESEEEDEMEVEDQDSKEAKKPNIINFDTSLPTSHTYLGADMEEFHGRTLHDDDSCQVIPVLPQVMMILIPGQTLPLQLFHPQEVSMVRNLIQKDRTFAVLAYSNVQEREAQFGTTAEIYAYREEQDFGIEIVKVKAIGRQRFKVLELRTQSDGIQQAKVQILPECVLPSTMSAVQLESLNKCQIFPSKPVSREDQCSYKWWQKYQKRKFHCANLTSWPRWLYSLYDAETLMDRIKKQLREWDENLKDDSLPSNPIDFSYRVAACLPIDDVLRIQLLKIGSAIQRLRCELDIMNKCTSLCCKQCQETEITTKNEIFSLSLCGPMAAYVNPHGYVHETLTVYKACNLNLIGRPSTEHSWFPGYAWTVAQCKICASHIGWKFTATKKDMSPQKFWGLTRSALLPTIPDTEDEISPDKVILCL
T6 sequence (Q16531 whole entry partner): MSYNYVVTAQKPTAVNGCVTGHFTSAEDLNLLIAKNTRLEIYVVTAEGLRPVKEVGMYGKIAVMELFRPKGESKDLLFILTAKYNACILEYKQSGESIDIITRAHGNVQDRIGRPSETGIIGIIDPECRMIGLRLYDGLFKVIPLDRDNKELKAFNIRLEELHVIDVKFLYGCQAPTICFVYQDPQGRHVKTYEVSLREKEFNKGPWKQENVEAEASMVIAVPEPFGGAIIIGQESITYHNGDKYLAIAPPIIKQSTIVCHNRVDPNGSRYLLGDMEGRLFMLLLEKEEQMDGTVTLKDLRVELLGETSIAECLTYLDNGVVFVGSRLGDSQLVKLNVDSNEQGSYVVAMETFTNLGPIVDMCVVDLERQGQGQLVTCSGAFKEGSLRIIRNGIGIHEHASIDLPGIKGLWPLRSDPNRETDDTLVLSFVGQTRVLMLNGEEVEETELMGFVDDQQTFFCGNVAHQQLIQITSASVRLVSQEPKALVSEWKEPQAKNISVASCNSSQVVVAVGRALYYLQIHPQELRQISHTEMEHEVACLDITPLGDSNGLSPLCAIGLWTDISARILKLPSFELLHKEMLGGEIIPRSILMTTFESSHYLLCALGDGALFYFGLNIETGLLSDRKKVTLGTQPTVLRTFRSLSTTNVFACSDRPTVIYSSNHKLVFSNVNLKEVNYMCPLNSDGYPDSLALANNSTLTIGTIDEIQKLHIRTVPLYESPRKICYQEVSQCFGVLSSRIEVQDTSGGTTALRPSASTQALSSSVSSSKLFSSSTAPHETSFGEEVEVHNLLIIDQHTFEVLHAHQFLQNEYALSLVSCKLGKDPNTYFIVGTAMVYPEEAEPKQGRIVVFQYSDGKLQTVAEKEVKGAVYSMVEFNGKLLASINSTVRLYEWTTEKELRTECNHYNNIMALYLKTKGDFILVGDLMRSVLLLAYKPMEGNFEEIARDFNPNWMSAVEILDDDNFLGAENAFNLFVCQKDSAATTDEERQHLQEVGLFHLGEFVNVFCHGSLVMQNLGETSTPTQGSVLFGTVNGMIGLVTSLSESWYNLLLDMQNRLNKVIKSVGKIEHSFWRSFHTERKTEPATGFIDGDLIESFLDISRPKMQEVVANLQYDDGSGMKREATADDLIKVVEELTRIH
T3 sequence (Q9UKS7 whole entry): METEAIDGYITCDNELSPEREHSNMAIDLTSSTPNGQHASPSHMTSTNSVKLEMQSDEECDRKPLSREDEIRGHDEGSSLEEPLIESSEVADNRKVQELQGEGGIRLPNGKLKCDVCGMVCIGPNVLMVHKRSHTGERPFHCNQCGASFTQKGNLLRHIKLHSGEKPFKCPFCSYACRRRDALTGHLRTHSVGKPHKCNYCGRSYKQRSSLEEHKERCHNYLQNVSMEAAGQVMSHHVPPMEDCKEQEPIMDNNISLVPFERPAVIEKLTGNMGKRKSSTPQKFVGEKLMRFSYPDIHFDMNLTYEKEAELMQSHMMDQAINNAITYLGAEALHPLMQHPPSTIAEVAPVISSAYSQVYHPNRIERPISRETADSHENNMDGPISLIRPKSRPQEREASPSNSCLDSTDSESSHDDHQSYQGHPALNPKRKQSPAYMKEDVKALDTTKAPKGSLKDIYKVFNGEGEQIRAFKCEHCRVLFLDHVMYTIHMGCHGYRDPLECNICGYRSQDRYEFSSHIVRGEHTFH
T3 sequence (Q96SW2 whole entry): as the sequence (Q96SW2 whole entry) above
T3 sequence (Q16531 whole entry partner): as the sequence (Q16531 whole entry partner) above
T2 sequence (Q13422 whole entry): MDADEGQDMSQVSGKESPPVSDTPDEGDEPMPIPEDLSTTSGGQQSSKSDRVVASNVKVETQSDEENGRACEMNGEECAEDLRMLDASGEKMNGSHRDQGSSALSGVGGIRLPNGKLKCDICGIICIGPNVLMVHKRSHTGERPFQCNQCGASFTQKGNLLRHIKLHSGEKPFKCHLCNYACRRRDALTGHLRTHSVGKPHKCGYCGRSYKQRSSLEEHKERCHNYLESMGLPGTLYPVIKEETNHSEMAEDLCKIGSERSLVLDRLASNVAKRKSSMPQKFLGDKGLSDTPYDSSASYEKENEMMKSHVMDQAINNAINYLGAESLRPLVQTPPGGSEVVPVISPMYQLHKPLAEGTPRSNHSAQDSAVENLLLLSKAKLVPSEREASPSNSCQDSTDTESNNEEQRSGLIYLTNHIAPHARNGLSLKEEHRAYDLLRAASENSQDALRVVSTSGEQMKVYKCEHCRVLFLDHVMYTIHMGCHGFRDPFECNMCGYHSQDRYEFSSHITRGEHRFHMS
T2 sequence (Q96SW2 whole entry): as the sequence (Q96SW2 whole entry) above
T2 sequence (Q16531 whole entry partner): as the sequence (Q16531 whole entry partner) above
T4 sequence (Q9UKT9 whole entry): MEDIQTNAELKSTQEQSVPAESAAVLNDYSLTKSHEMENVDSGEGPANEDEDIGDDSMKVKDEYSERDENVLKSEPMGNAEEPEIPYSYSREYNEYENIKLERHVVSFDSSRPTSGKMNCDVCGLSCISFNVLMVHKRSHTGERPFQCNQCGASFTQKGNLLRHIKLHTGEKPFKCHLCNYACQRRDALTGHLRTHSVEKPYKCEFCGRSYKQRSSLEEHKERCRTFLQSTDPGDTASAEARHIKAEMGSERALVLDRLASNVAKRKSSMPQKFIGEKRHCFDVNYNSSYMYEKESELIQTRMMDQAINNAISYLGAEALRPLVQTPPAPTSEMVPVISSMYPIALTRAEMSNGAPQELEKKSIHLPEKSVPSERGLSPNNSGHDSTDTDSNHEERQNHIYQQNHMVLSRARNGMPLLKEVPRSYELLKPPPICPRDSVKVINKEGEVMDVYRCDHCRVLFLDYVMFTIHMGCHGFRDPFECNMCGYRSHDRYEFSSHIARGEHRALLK
T4 sequence (Q96SW2 whole entry): as the sequence (Q96SW2 whole entry) above
T4 sequence (Q16531 whole entry partner): as the sequence (Q16531 whole entry partner) above
T5 sequence (P48729 whole entry): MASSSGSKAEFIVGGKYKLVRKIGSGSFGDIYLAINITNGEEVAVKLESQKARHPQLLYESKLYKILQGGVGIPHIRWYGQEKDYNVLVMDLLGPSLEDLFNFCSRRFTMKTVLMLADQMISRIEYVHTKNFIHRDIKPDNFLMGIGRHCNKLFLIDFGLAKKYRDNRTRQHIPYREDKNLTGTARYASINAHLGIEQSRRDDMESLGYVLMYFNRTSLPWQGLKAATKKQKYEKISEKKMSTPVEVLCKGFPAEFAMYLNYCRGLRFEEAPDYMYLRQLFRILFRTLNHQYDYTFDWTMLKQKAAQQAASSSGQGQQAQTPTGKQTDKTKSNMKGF
T5 sequence (Q96SW2 whole entry): as the sequence (Q96SW2 whole entry) above
T5 sequence (Q16531 whole entry partner): as the sequence (Q16531 whole entry partner) above

Row | SMILES | IC50 (MV-4-11 cells) | WEE1 substrate protein remaining % (WEE1) | IKZF1 substrate protein remaining % (IKZF1) | IKZF2 substrate protein remaining % (IKZF2) | IKZF3 substrate protein remaining % (IKZF3) | CK1α substrate protein remaining % (CK1α) | GSPT1 substrate protein remaining % (GSPT1) | IC50 (MM.1S cells) | IC50 (Jurkat cells)
1 | O=C1CCN(N2Cc3cc(CN4CCN(c5ccccc5)CC4)ccc3C2=O)C(=O)N1 [GT-06696, 1-(1-oxo-5-((4-phenylpiperazin-1-yl)methyl)isoindolin-2-yl)dihydropyrimidine-2,4(1H,3H)-dione] | 100 to 300 nM | B (80%< substrate protein remaining % ≤100%) | B (80%< substrate protein remaining % ≤100%) | B (80%< substrate protein remaining % ≤100%) | B (80%< substrate protein remaining % ≤100%) | B (80%< substrate protein remaining % ≤100%) | A (0% ≤ substrate protein remaining % ≤80%) |  | 
2 | O=C1CCN(N2Cc3cc(CN4CCN(c5cccc(Br)c5)CC4)ccc3C2=O)C(=O)N1 [GT-06698, 1-(5-((4-(3-bromophenyl)piperazin-1-yl)methyl)-1-oxoisoindolin-2-yl)dihydropyrimidine-2,4(1H,3H)-dione] | 100 to 300 nM | B (80%< substrate protein remaining % ≤100%) | B (80%< substrate protein remaining % ≤100%) | B (80%< substrate protein remaining % ≤100%) | B (80%< substrate protein remaining % ≤100%) | B (80%< substrate protein remaining % ≤100%) | A (0% ≤ substrate protein remaining % ≤80%) |  | 
3 | COc1cccc(N2CCN(Cc3ccc4c(c3)CN(N3CCC(=O)NC3=O)C4=O)CC2)c1 [GT-06699, 1-(5-((4-(3-methoxyphenyl)piperazin-1-yl)methyl)-1-oxoisoindolin-2-yl)dihydropyrimidine-2,4(1H,3H)-dione] | 100 to 300 nM | B (80%< substrate protein remaining % ≤100%) | B (80%< substrate protein remaining % ≤100%) | B (80%< substrate protein remaining % ≤100%) | B (80%< substrate protein remaining % ≤100%) | B (80%< substrate protein remaining % ≤100%) | A (0% ≤ substrate protein remaining % ≤80%) |  | 
4 | O=C1CCN(N2Cc3cc(CN4CCN(c5ccc(C(F)(F)F)cc5)CC4)ccc3C2=O)C(=O)N1 [GT-06700, 1-(1-oxo-5-((4-(4-(trifluoromethyl)phenyl)piperazin-1-yl)methyl)isoindolin-2-yl)dihydropyrimidine-2,4(1H,3H)-dione] | 50 to 100 nM |  |  |  |  |  |  |  | 
5 | O=C1CCN(N2Cc3cc(CN4CC=C(c5n[nH]c6cc(F)ccc56)CC4)ccc3C2=O)C(=O)N1 [GT-07578, 1-(5-((4-(6-fluoro-1H-indazol-3-yl)-3,6-dihydropyridin-1(2H)-yl)methyl)-1-oxoisoindolin-2-yl)dihydropyrimidine-2,4(1H,3H)-dione] |  | A (0% ≤ substrate protein remaining % ≤80%) | A (0% ≤ substrate protein remaining % ≤80%) | A (0% ≤ substrate protein remaining % ≤80%) | B (80%< substrate protein remaining % ≤100%) | B (80%< substrate protein remaining % ≤100%) | A (0% ≤ substrate protein remaining % ≤80%) | 50 to 100 nM | 50 to 100 nM
6 | O=C1CCN(N2Cc3cc(CN4CC=C(c5cccc6c(F)cccc56)CC4)ccc3C2=O)C(=O)N1 [GT-07590, 1-(5-((4-(5-fluoronaphthalen-1-yl)-3,6-dihydropyridin-1(2H)-yl)methyl)-1-oxoisoindolin-2-yl)dihydropyrimidine-2,4(1H,3H)-dione] |  | A (0% ≤ substrate protein remaining % ≤80%) | A (0% ≤ substrate protein remaining % ≤80%) | A (0% ≤ substrate protein remaining % ≤80%) | A (0% ≤ substrate protein remaining % ≤80%) | B (80%< substrate protein remaining % ≤100%) | A (0% ≤ substrate protein remaining % ≤80%) | 10 to 50 nM | 50 to 100 nM
